{"source": "PubChem BioAssay AID720588", "about": "(Broad Institute, 2013)", "data": [{"tested_on": "HEK293T viability, CellTiter-Glo ATP luminescence, 72 h", "test": "HEK293T cell cytotoxicity, dose response, cytotoxicity control, CellTiter-Glo luminescence, cherry-pick, set 3 (AID 720588);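 further: potency for luminescence loss meaning cytotoxic compounds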", "units": {"AC35": "µM"}, "values": [{"smiles": "C[C@]12CC[C@H]3[C@@H](CC[C@]4(O)C[C@@H](O)CC[C@]34C=O)[C@@]1(O)CC[C@@H]2C1=CC(=O)OC1", "AC35": 0.774}, {"smiles": "O=C(c1nnsc1S(=O)c1ccc(Cl)cc1)N1CCOCC1", "note": "(centres undefined)", "AC35": 5.6}, {"smiles": "CCOc1ccc(N=Nc2ccc(O)c3ncccc23)cc1", "AC35": 13.4}, {"smiles": "CCc1nc(N)nc(N)c1-c1ccc(Cl)cc1", "AC35": 15.9}, {"smiles": "Cc1ccc(C(=O)O/N=C(\\N)c2ccccn2)cc1", "AC35": 14.9}, {"smiles": "COc1ccccc1CNC(=O)C[C@@H]1CC[C@H]2[C@@H](COC[C@H](O)CN2C(=O)Nc2ccc(C(F)(F)F)cc2)O1", "AC35": 13.5}, {"smiles": "COC(=O)CC1(C(=O)OC)Oc2ccc(Br)cc2C(=O)N1c1cccc(Cl)c1Cl", "note": "(centres undefined)", "AC35": 13.1}, {"smiles": "Cc1cc2c(C(C)C)c(O)c(O)c(C=O)c2c(O)c1-c1c(C)cc2c(C(C)C)c(O)c(O)c(C=O)c2c1O", "AC35": 9.42}, {"smiles": "C[C@H]1CN([C@@H](C)CO)C(=O)c2cc(N(C)C)ccc2O[C@H]1CN(C)Cc1ccc(C(=O)Nc2ccccc2N)cc1", "AC35": 3.65}]}]}
